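Growth conditions: 96-well plates. Treatment: test compound, 48 hours, 5 concentrations. Analysis: linear interpolation between bracketing concentrations; unreached endpoints set to highest concentration. The concentration for 50% growth inhibition is given as GI50.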 Active and inactive are the calls of the source. Cut-off read from the data, not from the text of the source: active = GI50 up to about 1.1 µM and inactive = higher.
Columns and labels:
Assay in all cases: DTP human tumour cell line panel, 48 h
COLO 205 = test system: COLO 205
EKVX = test system: EKVX
SNB-19 = test system: SNB-19
RXF 393 = test system: RXF 393
IGROV-1 = test system: IGROV-1
786-0 = test system: 786-0
MOLT-4 = test system: MOLT-4
HOP-62 = test system: HOP-62
SR = test system: SR
A498 = test system: A498
CAKI-1 = test system: CAKI-1
OVCAR-5 = test system: OVCAR-5
SN12C = test system: SN12C
CCRF-CEM = test system: CCRF-CEM
NCI-H460 = test system: NCI-H460
TK-10 = test system: TK-10
HCT-15 = test system: HCT-15
HOP-92 = test system: HOP-92
NCI-H226 = test system: NCI-H226
OVCAR-8 = test system: OVCAR-8

Structure (SMILES)	GI50 (COLO 205)	GI50 (EKVX)	GI50 (SNB-19)	GI50 (RXF 393)	GI50 (IGROV-1)	GI50 (786-0)	GI50 (MOLT-4)	GI50 (HOP-62)	GI50 (SR)	GI50 (A498)	GI50 (CAKI-1)	GI50 (OVCAR-5)	GI50 (SN12C)	GI50 (CCRF-CEM)	GI50 (NCI-H460)	GI50 (TK-10)	GI50 (HCT-15) [µM]	GI50 (HOP-92)	GI50 (NCI-H226)	GI50 (OVCAR-8)
CN(C)CC[N+](C)(C)[BH2-]C(O)O	> 100 µM (inactive)	> 100 µM (inactive)	> 100 µM (inactive)	> 100 µM (inactive)	> 100 µM (inactive)	> 100 µM (inactive)	> 100 µM (inactive)	> 100 µM (inactive)	> 100 µM (inactive)	> 100 µM (inactive)	> 100 µM (inactive)	> 100 µM (inactive)	> 100 µM (inactive)	> 100 µM (inactive)	> 100 µM (inactive)	> 100 µM (inactive)	> 100	> 100 µM (inactive)	–	–
Cc1cc(O)c(C=O)c(C)c1CCC1(C)C=Cc2cc(O)ccc2O1 (centres undefined)	15.6 µM (inactive)	29.5 µM (inactive)	38.9 µM (inactive)	–	26.2 µM (inactive)	29.3 µM (inactive)	18.4 µM (inactive)	20 µM (inactive)	> 100 µM (inactive)	39.8 µM (inactive)	19.2 µM (inactive)	30.5 µM (inactive)	29.3 µM (inactive)	17.1 µM (inactive)	22.6 µM (inactive)	46.5 µM (inactive)	22.9	22.2 µM (inactive)	26.5 µM (inactive)	17.1 µM (inactive)
Cc1cccc(NC(=S)Nc2ccc(Cl)cc2)n1	> 100 µM (inactive)	> 100 µM (inactive)	> 100 µM (inactive)	> 100 µM (inactive)	> 100 µM (inactive)	> 100 µM (inactive)	> 100 µM (inactive)	> 100 µM (inactive)	> 100 µM (inactive)	> 100 µM (inactive)	> 100 µM (inactive)	–	–	> 100 µM (inactive)	> 100 µM (inactive)	> 100 µM (inactive)	> 100	> 100 µM (inactive)	> 100 µM (inactive)	> 100 µM (inactive)
CCOC(=O)CCC(NC(=O)c1ccc(Nc2nc3ccccc3nc2C(=O)OCC)cc1)C(=O)OCC (centres undefined)	> 33.7 µM (inactive)	7.38 µM (inactive)	3.94 µM (inactive)	–	3.54 µM (inactive)	1.85 µM (inactive)	> 100 µM (inactive)	3.89 µM (inactive)	> 39.3 µM (inactive)	6.79 µM (inactive)	5.96 µM (inactive)	> 28.6 µM (inactive)	15.7 µM (inactive)	> 100 µM (inactive)	> 72.1 µM (inactive)	2.92 µM (inactive)	18.1	3.91 µM (inactive)	3.24 µM (inactive)	2.75 µM (inactive)
Oc1ccc(-c2ccccc2)nn1	–	> 100 µM (inactive)	> 100 µM (inactive)	> 100 µM (inactive)	> 100 µM (inactive)	> 100 µM (inactive)	> 100 µM (inactive)	> 100 µM (inactive)	> 100 µM (inactive)	> 100 µM (inactive)	> 100 µM (inactive)	> 100 µM (inactive)	> 100 µM (inactive)	> 100 µM (inactive)	> 100 µM (inactive)	> 100 µM (inactive)	> 100	> 100 µM (inactive)	–	> 100 µM (inactive)
N#CCCN(CCC#N)C(=O)c1cccc(C(=O)N(CCC#N)CCC#N)c1	> 70.5 µM (inactive)	> 46.2 µM (inactive)	> 61 µM (inactive)	4.07 µM (inactive)	> 100 µM (inactive)	> 100 µM (inactive)	> 100 µM (inactive)	> 100 µM (inactive)	> 44.2 µM (inactive)	> 100 µM (inactive)	> 100 µM (inactive)	> 100 µM (inactive)	> 43.7 µM (inactive)	> 100 µM (inactive)	> 47.5 µM (inactive)	–	> 100	> 58.7 µM (inactive)	–	> 50 µM (inactive)
Fc1ccc(/N=C2C=C/C(=N\c3ccc(F)cc3)c3ccccc3\2)cc1	> 100 µM (inactive)	33.9 µM (inactive)	70.5 µM (inactive)	92.3 µM (inactive)	> 100 µM (inactive)	> 100 µM (inactive)	> 100 µM (inactive)	31.4 µM (inactive)	> 100 µM (inactive)	> 100 µM (inactive)	–	> 100 µM (inactive)	> 100 µM (inactive)	> 100 µM (inactive)	93.1 µM (inactive)	> 100 µM (inactive)	> 100	19.4 µM (inactive)	77.4 µM (inactive)	> 100 µM (inactive)
N#CC1C(=O)N(c2ccccc2)NC12OC(=O)c1ccncc12 (centres undefined)	> 20 µM (inactive)	> 20 µM (inactive)	> 20 µM (inactive)	> 20 µM (inactive)	> 20 µM (inactive)	> 20 µM (inactive)	> 20 µM (inactive)	–	> 20 µM (inactive)	> 20 µM (inactive)	> 20 µM (inactive)	> 20 µM (inactive)	> 20 µM (inactive)	> 20 µM (inactive)	> 20 µM (inactive)	–	> 20	> 20 µM (inactive)	> 20 µM (inactive)	> 20 µM (inactive)
C=CCc1cccc2cc(C(=O)NCc3ccccc3)c(=N)oc12	40.6 µM (inactive)	26.1 µM (inactive)	29.9 µM (inactive)	46.3 µM (inactive)	24.9 µM (inactive)	29.1 µM (inactive)	> 100 µM (inactive)	38.5 µM (inactive)	> 100 µM (inactive)	23.4 µM (inactive)	37 µM (inactive)	54 µM (inactive)	27.6 µM (inactive)	32.6 µM (inactive)	28.5 µM (inactive)	–	32.2	48.5 µM (inactive)	24.2 µM (inactive)	43.9 µM (inactive)
Cc1cn(C2CC(O)C(Cn3cc(Cn4ncc(=O)[nH]c4=O)nn3)O2)c(=O)[nH]c1=O (centres undefined)	> 100 µM (inactive)	> 100 µM (inactive)	> 100 µM (inactive)	> 100 µM (inactive)	> 100 µM (inactive)	> 100 µM (inactive)	> 100 µM (inactive)	> 100 µM (inactive)	> 100 µM (inactive)	> 100 µM (inactive)	> 100 µM (inactive)	> 100 µM (inactive)	> 100 µM (inactive)	0.478 µM (active)	–	> 100 µM (inactive)	> 100	> 100 µM (inactive)	> 100 µM (inactive)	> 100 µM (inactive)
O=C([O-])C(O)C(O)C(O)C(O)C(=O)O.[K+] (centres undefined)	> 100 µM (inactive)	> 100 µM (inactive)	> 100 µM (inactive)	> 100 µM (inactive)	> 100 µM (inactive)	> 100 µM (inactive)	> 100 µM (inactive)	> 100 µM (inactive)	> 100 µM (inactive)	> 100 µM (inactive)	> 100 µM (inactive)	> 100 µM (inactive)	> 100 µM (inactive)	> 100 µM (inactive)	> 100 µM (inactive)	–	> 100	> 100 µM (inactive)	> 100 µM (inactive)	> 100 µM (inactive)
CSc1ccc(/C=C2\CN(C)C/C(=C\c3ccc(SC)cc3)C2=O)cc1	21.2 µM (inactive)	81.3 µM (inactive)	–	22 µM (inactive)	32.6 µM (inactive)	54.1 µM (inactive)	19.4 µM (inactive)	> 100 µM (inactive)	7.57 µM (inactive)	46.8 µM (inactive)	> 100 µM (inactive)	> 100 µM (inactive)	23.3 µM (inactive)	23.1 µM (inactive)	29.2 µM (inactive)	56.6 µM (inactive)	32	4.23 µM (inactive)	> 100 µM (inactive)	13.5 µM (inactive)
C[C@@H]1C[C@@H]2OC(=O)[C@]3(C)[C@H]2[C@@H](OC3(C)O)[C@]2(C)C(=O)C=C[C@@H]12 (some centres undefined) [TENULIN]	14.2 µM (inactive)	20.2 µM (inactive)	41.4 µM (inactive)	18.7 µM (inactive)	> 10 µM (inactive)	31.1 µM (inactive)	16.4 µM (inactive)	87.7 µM (inactive)	5.18 µM (inactive)	22.6 µM (inactive)	22.1 µM (inactive)	19.9 µM (inactive)	18.3 µM (inactive)	4.68 µM (inactive)	–	18 µM (inactive)	10.1	17.5 µM (inactive)	74 µM (inactive)	32.4 µM (inactive)
Cc1ncc(CSc2ccccc2N)c(CO)c1O	> 100 µM (inactive)	> 100 µM (inactive)	> 100 µM (inactive)	> 100 µM (inactive)	> 100 µM (inactive)	> 100 µM (inactive)	> 100 µM (inactive)	> 100 µM (inactive)	> 100 µM (inactive)	> 100 µM (inactive)	> 100 µM (inactive)	> 100 µM (inactive)	> 100 µM (inactive)	–	–	> 100 µM (inactive)	> 100	> 100 µM (inactive)	> 100 µM (inactive)	> 100 µM (inactive)
COc1ccc(CCCNC(=O)Cc2cc(OC)c(OC)cc2CO)cc1OC	> 100 µM (inactive)	> 100 µM (inactive)	> 100 µM (inactive)	–	> 100 µM (inactive)	> 100 µM (inactive)	> 100 µM (inactive)	> 100 µM (inactive)	> 100 µM (inactive)	> 100 µM (inactive)	> 100 µM (inactive)	> 100 µM (inactive)	> 100 µM (inactive)	> 100 µM (inactive)	> 100 µM (inactive)	> 100 µM (inactive)	> 100	> 100 µM (inactive)	> 100 µM (inactive)	> 100 µM (inactive)

— ChEMBL document CHEMBL1201862, “PubChem BioAssay data set” (2004)
